In ChEMBL document CHEMBL3352537 (Bioorg Med Chem Lett, 2014):

Tests used:
[1] = target: Prostaglandin G/H synthase 1 (Homo sapiens) (UniProt P23219); assay: Inhibition of COX1 (unknown origin) using arachidonic acid as substrate at […] after 10 mins by luminometry
[2] = target: Transcription factor p65 (Homo sapiens) (UniProt Q04206); assay: Inhibition of LPS-induced NF-kappaB p65 activation in human THP1 cells preincubated at 10 uM for 15 mins before LPS treatment measured after 16 hrs; assay type: cell-based; settings: THP-1
[3] = Antioxidant activity assessed as superoxide anion radical scavenging activity at 5 to 20 uM by xanthine/xanthine oxidase assay; assay type: physicochemical
[4] = Antioxidant activity assessed as DPPH scavenging activity at 5 to 20 uM after 15 mins by UV-visible spectrophotometry; assay type: physicochemical

Sequence of Prostaglandin G/H synthase 1 (Homo sapiens) (P23219 whole entry): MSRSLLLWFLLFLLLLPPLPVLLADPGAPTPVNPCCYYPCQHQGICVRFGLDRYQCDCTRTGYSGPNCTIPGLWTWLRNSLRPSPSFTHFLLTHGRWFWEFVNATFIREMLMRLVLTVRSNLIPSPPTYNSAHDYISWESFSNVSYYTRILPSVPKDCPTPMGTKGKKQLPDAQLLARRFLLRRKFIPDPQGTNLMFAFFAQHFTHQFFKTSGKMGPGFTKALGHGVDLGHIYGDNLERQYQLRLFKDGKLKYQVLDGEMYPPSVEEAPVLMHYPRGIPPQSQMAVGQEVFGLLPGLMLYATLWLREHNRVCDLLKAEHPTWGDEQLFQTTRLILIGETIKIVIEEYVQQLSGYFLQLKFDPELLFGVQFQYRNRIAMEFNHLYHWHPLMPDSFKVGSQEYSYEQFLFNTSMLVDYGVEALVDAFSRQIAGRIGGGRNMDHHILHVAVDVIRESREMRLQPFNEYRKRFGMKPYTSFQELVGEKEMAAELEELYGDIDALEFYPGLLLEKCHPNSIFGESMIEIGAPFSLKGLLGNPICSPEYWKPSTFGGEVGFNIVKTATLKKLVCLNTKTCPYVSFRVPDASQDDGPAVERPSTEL
Sequence of Transcription factor p65 (Homo sapiens) (Q04206 whole entry): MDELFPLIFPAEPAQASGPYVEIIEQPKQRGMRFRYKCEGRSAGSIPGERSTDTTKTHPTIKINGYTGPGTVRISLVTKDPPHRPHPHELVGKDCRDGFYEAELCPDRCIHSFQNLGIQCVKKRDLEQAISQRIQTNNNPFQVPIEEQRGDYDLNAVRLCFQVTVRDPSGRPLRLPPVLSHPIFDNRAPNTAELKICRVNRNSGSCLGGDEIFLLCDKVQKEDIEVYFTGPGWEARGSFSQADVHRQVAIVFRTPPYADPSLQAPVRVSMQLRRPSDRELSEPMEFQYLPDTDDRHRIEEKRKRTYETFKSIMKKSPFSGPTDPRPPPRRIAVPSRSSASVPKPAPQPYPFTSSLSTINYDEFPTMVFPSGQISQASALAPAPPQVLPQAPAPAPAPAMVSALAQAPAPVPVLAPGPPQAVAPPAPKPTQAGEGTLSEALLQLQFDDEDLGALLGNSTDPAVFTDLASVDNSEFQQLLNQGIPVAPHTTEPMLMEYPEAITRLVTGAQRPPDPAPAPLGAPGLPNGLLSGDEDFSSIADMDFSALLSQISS

| Activity [4] | Structure (SMILES) | inhibition [1] | inhibition [2] | Activity [3] |
| --- | --- | --- | --- | --- |
| Active | COc1cc(C(=O)O)ccc1O [VANILLIC ACID] | – | – | – |
| Active | O=C(O)c1ccc(O)cc1 [PARABEN] | – | – | – |

| Structure (SMILES) | Activity [4] | inhibition [1] | inhibition [2] | Activity [3] |
| --- | --- | --- | --- | --- |
| Oc1ccc(CCNCc2ccc(O)c(O)c2)cc1 | Active | 51% | 23% | 33% |
